How the values were obtained:
[1] = tested on: rNsp5-S144M recombinant SARS-CoV-2; type: cell-based
[2] = tested on: rNsp5-L50F/E166V recombinant SARS-CoV-2; type: cell-based

## CC(C)(C)[C@H](NC(=O)C(F)(F)F)C(=O)N1C[C@H]2[C@@H]([C@H]1C(=O)N[C@H](C#N)C[C@@H]1CCNC1=O)C2(C)C [nirmatrelvir]
[1]
  EC50 fold-increase compared to WT: 12.5
[2]
  EC50 fold-increase compared to WT: 24.2
